In patent US12171753B2, “Crystalline forms of ALDH2 modulators” (SOPHROSYNE PHARMACEUTICALS LIMITED, priority 2021, dated 2024):
Blank lines part the entries; values can stand above or below the molecule they belong to.

Experiments:
[1] = Polymorphic screen: suspending 50 mg of compound in solvent, suspension outcome; type: physicochemical; details: left overnight
Procedure: The polymorphic screening of the compound of Formula IV-I was performed by suspending 50 mg of the compound of Formula IV-I in each of the solvents as described in Table 12 at a volume of 1.5 mL for all but water (1 mL) in a separate vial. The vials were sealed and the suspensions were left overnight. In the following day, the vials with the compound of Formula IV-I dissolved were opened and the solutions were left to evaporate at room temperature. The solid materials were collected after the complete evaporation of the solvent. In the vials where the compound of Formula IV-I was not fully dissolved, the mixtures were left to slurrying for another 96 h. The slurries were filtered and the obtained solids were analyzed.

[2] = tested on: subject suffering from alcohol use disorder; assay: Pharmaceutical composition administered to a subject suffering from alcohol use disorder; type: in vivo
Procedure: (§1) [drawing 31] and trifluorotriiodobenzene is administered to a subject suffering from alcohol use disorder. […] The subject is also found to have less cravings on the Visual Analogue Scale of Craving, which has 4 questions to assess domains of alcohol craving: the intention to drink, loss of control, relief craving, and urge intensity with a 0-20 point visual analogue scale for each item, with 0 indicating no craving and 20 indicating severe craving.
as §1, with “32]” for “31] and trifluorotriiodobenzene”

- Suspension outcome ([1]; 50 mg in 1 mL H2O): Dissolved
- Suspension outcome ([1]; 50 mg in 1.5 mL 1-propanol): Slurry
- Suspension outcome ([1]; 50 mg in 1.5 mL 2-propanol): Slurry
- Suspension outcome ([1]; 50 mg in 1.5 mL Acetone): Slurry
- Suspension outcome ([1]; 50 mg in 1.5 mL Acetonitrile): Slurry
- Suspension outcome ([1]; 50 mg in 1.5 mL Chloroform): Dissolved
- Suspension outcome ([1]; 50 mg in 1.5 mL Cyclohexane): Slurry
- Suspension outcome ([1]; 50 mg in 1.5 mL Dichloromethane): Dissolved
- Suspension outcome ([1]; 50 mg in 1.5 mL EtOAc): Slurry
- Suspension outcome ([1]; 50 mg in 1.5 mL EtOH): Dissolved
- Suspension outcome ([1]; 50 mg in 1.5 mL Ethyl ether): Slurry
- Suspension outcome ([1]; 50 mg in 1.5 mL Isopropyl acetate): Slurry
- Suspension outcome ([1]; 50 mg in 1.5 mL MeOH): Dissolved
- Suspension outcome ([1]; 50 mg in 1.5 mL Methyl acetate): Slurry
- Suspension outcome ([1]; 50 mg in 1.5 mL Nitromethane): Dissolved
- Suspension outcome ([1]; 50 mg in 1.5 mL Octane): Slurry
- Suspension outcome ([1]; 50 mg in 1.5 mL THF): Slurry
- Suspension outcome ([1]; 50 mg in 1.5 mL Toluene): Slurry
- Suspension outcome ([1]; 50 mg in 1.5 mL n-hexane): Slurry
- Suspension outcome ([1]; 50 mg in 1.5 mL n-pentane): Slurry
SMILES: C[S+]([O-])C(=O)N1CCC(O)CC1 (centres unmarked) [Formula IV-I, 1-S-Methyl 1-S-oxo 4-hydroxy-1-piperidinecarbothioate]

SMILES: C[S+]([O-])C(=O)N1CCC(O)CC1 (centres unmarked) [drawing 31]
- Cravings on the Visual Analogue Scale of Craving ([2]; 4 questions, 0-20 point scale per item): less cravings
- Craving scale after 2 weeks of treatment ([2]; after 2 weeks of being treated): reduction in the craving scale
- Alcohol consumed over a 90 day period ([2]; compared to a 90 day period prior to treatment): consume less alcohol
- Percentage of no heavy drinking days ([2]; during the period of treatment (e.g., 1 to 13 weeks)): increase in the percentage of no heavy drinking days
- Number of drinks consumed in the natural environment ([2]; first 13 days of medication period, timeline follow-back interview): reduction in the number of drinks
- Alcohol drinking of the treated subject ([2]; subject with alcohol use disorder): drink less or no alcohol
